The test system of one data set is HeLa cells. Nature of the data set: Cytotoxicity in HeLa cells, ATP content (ATPlite kit). Particulars: three days incubation, CC50 = 50% concentration for cytotoxicity. In general terms: Cellular ATP, detected with luciferase, serves as a proxy for viable cell number.
In another data set the test system is rgRSV224 virus. Nature of the data set: microbe, parasite or virus in culture. Type of data set: cell-based, respiratory syncytial virus (RSV). Particulars: human respiratory syncytial virus, HeLa, 72 h, read-out: RSV HELA pEC50, rgRSV224 virus (MOI=1), HeLa cells, GFP expression three days post-virus exposure (converted).

Protocol for HeLa cells: Black 384-well clear-bottom microtiter plates (Corning, Amsterdam, The Netherlands) were filled via acoustic drop ejection using the echo liquid handler (Labcyte, Sunnyvale, Calif.). 200 nL of compound stock solutions (100% DMSO) were transferred to the assay plates. 9 serial 4-fold dilutions of compound were made, creating per quadrant the same compound concentration. The assay was initiated by adding 10 μL of culture medium to each well (RPMI medium without phenol red, 10% FBS-heat inactivated, 0.04% gentamycin (50 mg/mL). All addition steps are done by using a multidrop dispenser (Thermo Scientific, Erembodegem, Belgium). Next, rgRSV224 virus (MOI=1) diluted in culture medium was added to the plates. rgRSV224 virus is an engineered virus that includes an additional GFP gene (Hallak L K, Spillmann D, Collins P L, Peeples M E. Glycosaminoglycan sulfation requirements for respiratory syncytial virus infection; Journal of virology (2000), 74(22), 10508-13) and was in-licensed from the NIH (Bethesda, Md., USA). Finally, 20 μL of a HeLa cell suspension (3,000 cells/well) were plated. Medium, virus- and mock-infected controls were included in each test. The wells contain 0.05% DMSO per volume. Cells were incubated at 37° C. in a 5% CO2 atmosphere. Three days post-virus exposure, viral replication was quantified by measuring GFP expression in the cells by an in house developed MSM laser microscope (Tibotec, Beerse, Belgium). The EC50 was defined as the 50% inhibitory concentration for GFP expression. In parallel, compounds were incubated for three days in a set of white 384-well microtiter plates (Corning) and the cytotoxicity of compounds in HeLa cells was determined by measuring the ATP content of the cells using the ATPlite kit (Perkin Elmer, Zaventem, Belgium) according to the manufacturer's instructions. The CC50 was defined as the 50% concentration for cytotoxicity.

Broadly, the melting point is the temperature, or range, at which the solid turns liquid. `Cc1ccc2ncnc(N3CCCCC3c3cc4nc(N5CCC5)c(C)cn4n3)c2c1` (stereo not shown) [P11, 4-(2-(5-(azetidin-1-yl)-6-methylpyrazolo[1,5-a]pyrimidin-2-yl)-piperidin-1-yl)-6-methylquinazoline] displayed a melting point of 205.49 °C. The “SI TOX HELA” value in the data set on HeLa cells is given as under 4.6. The EC50 with rgRSV224 virus is 126 nM.
Taken in the same sequence, the figures for `Cc1ccc2ncnc(N3CCCCC3c3cc4nc(N5CC(O)C5)c(C)cn4n3)c2c1` (stereo not shown) [P12, 1-(6-methyl-2-(1-(6-methylquinazolin-4-yl)piperidin-2-yl)pyrazolo-[1,5-a]pyrimidin-5-yl)azetidin-3-ol] were 233.08 °C, under 4 and 200 nM.
Taken in the same sequence, the figures for `Cc1nc2c(N3CCCCC3c3cc4nc(N5CCC5)cc(N5CCOCC5)n4n3)ncnc2s1` (stereo not shown) [P20, 4-(5-(azetidin-1-yl)-2-(1-(2-methylthiazolo[5,4-d]pyrimidin-7-yl)-piperidin-2-yl)pyrazolo[1,5-a]pyrimidin-7-yl)morpholine] were 229.8 °C, 5.4 and 631 nM.
`Cc1ccc2ncnc(N3CCCCC3c3cc4nc(N5CCC5)cc(C)n4n3)c2c1` (stereo not shown) [P21, 4-(2-(5-(azetidin-1-yl)-7-methylpyrazolo[1,5-a]pyrimidin-2-yl)-piperidin-1-yl)-6-methylquinazoline] had a melting point of 192.43 °C. Further, the “SI TOX HELA” value in the data set on HeLa cells is given as under 4.6. Besides, the EC50 in the data set on rgRSV224 virus is 398 nM.
Taken in the same sequence, the figures for `Cc1nc(N2CCCCC2c2cc3nc(N4CC(N)C4)c(C)cn3n2)c2c(C)cccc2n1` (stereo not shown) [P27, 1-(2-(1-(2,5-dimethylquinazolin-4-yl)piperidin-2-yl)-6-methyl-pyrazolo[1,5-a]pyrimidin-5-yl)azetidin-3-amine] were 176.85 °C, 4.5 and 631 nM.
Taken in the same sequence, the figures for `COC(=O)N(C(=O)OC)c1nc(N2CCCCC2c2cc3nc(N4CCC4)cc(N4CCOCC4)n3n2)c2c(C)cccc2n1` (stereo not shown) [P28, dimethyl (4-{2-[5-(azetidin-1-yl)-7-(morpholin-4-yl)pyrazolo[1,5-a]-pyrimidin-2-yl]piperidin-1-yl}-5-methylquinazolin-2-yl)imidodicarbonate] were 136.62 °C, under 4 and 794 nM.
Consider `Cc1cccc2nc(C(=O)NS(C)(=O)=O)nc(N3CCCCC3c3cc4nc(N5CCC5)cc(N5CCOCC5)n4n3)c12` (stereo not shown) [P69, 4-(2-(5-(azetidin-1-yl)-7-morpholinopyrazolo[1,5-a]pyrimidin-2-yl)-piperidin-1-yl)-5-methyl-N-(methylsulfonyl)quinazoline-2-carboxamide], for which the “SI TOX HELA” value with HeLa cells was under 4. In addition, in the data set on rgRSV224 virus, the EC50 is 316 nM.
Taken in the same sequence, the figures for `CNC(=O)c1nc(N2CCCCC2c2cc3nc(N4CCC4)cc(N4CCOCC4)n3n2)c2c(C)cccc2n1` (stereo not shown) [P70, 4-(2-(5-(azetidin-1-yl)-7-morpholinopyrazolo[1,5-a]pyrimidin-2-yl)-piperidin-1-yl)-N,5-dimethylquinazoline-2-carboxamide] were 4.3 and 631 nM.
For `Cc1cccc2nc(C(=O)NS(=O)(=O)C3CC3)nc(N3CCCCC3c3cc4nc(N5CCC5)cc(N5CCOCC5)n4n3)c12` (stereo not shown) [P71, 4-(2-(5-(azetidin-1-yl)-7-morpholinopyrazolo[1,5-a]pyrimidin-2-yl)-piperidin-1-yl)-N-(cyclopropylsulfonyl)-5-methylquinazoline-2-carboxamide] the same measures were under 4 and 398 nM.
Taken in the same sequence, the figures for `Cc1cccc2nc(-c3cnoc3)nc(N3CCCCC3c3cc4nc(N5CCC5)cc(N5CCOCC5)n4n3)c12` (stereo not shown) [P72, 4-(5-(azetidin-1-yl)-2-(1-(2-(isoxazol-4-yl)-5-methylquinazolin-4-yl)-piperidin-2-yl)pyrazolo[1,5-a]pyrimidin-7-yl)morpholine] were 4.5 and 25.1 nM.
`Cc1nnn(C)c1-c1nc(N2CCCCC2c2cc3nc(N4CCC4)cc(N4CCOCC4)n3n2)c2c(C)cccc2n1` (stereo not shown) [P73, 4-(5-(azetidin-1-yl)-2-(1-(2-(1,4-dimethyl-1H-1,2,3-triazol-5-yl)-5-methylquinazolin-4-yl)piperidin-2-yl)pyrazolo[1,5-a]pyrimidin-7-yl)morpholine] came in with a melting point of 238.91 °C. Moreover, the “SI TOX HELA” value in the data set with HeLa cells worked out at 4.8. Also, in the data set with rgRSV224 virus, the EC50 is 126 nM.
In the case of `COc1cccc2ncnc(N3CCCCC3c3cc4nc(N5CCC5)cc(N5CCOCC5)n4n3)c12` (stereo not shown) [P74, 4-(5-(azetidin-1-yl)-2-(1-(5-methoxyquinazolin-4-yl)piperidin-2-yl)-pyrazolo[1,5-a]pyrimidin-7-yl)morpholine], the “SI TOX HELA” value in the data set on HeLa cells is recorded as under 4.6. In addition, the EC50 in the data set with rgRSV224 virus is 15.8 nM.

Values taken from patent publication US9981976B2, “Piperidine substituted pyrazolo[1,5-A]pyrimidine derivatives with inhibitory activity on the replication of the respiratory syncytial virus (RSV)” (priority 2014, dated 2018).
